In patent EP0710485A1, “use of anserine in the manufacture of a medicament for stimulating hematopoiesis” (SUNTORY LIMITED, priority 1994, dated 1996):

Tests used:
bone marrow cells = test: Spontaneous proliferation of bone marrow cells (3H-thymidine uptake) from cyclophosphamide-treated mice; type: in vivo, ICR mice
Experimental: 300 mg/kg dose of cyclophosphamide (CY) was intraveously injected into 7-week-old ICR mice. […] The number of cells per femur for each mouse was counted, and the bone marrow cells for each test group were plated on a 96-well microplate (2 X 100,000 cells/well), and at the same time 0.5µ Ci/well of ^3H-thymidine was added. The cells were cultured for 5 hours, and radioactivity (C.P.M) was measured with a liquid scintillation counter. An experiment was carried out using 3 animals per group, and the results are shown by mean value ± standard error. Spontaneous proliferation ability of bone marrow cells for each group was shown in the parentheses by percentage by taking spontaneous proliferation of bone marrow cells at 0 day (untreated) as 100%.

IL-3 = IL-3 productivity of spleen cells of cyclophosphamide-treated mice (FDCP-2 cell MTT assay); type: in vivo, ICR mice; settings: for IL-3 productivity of the spleen cells: CY 300 mg/kg i.v. + L-anserine 100 mg/kg every day; for productivity of IL-3 by spleen cells: CY 300 mg/kg i.v. alone
Experimental: 300 mg/kg dose of cyclophosphamide (CY) was intraveously injected to 7-week old ICR mice. To L-anserine (Ans)-administration group, 100 mg/kg dose of L-anserine was administrated every day from the day on which cyclophosphamide was administrated. On the third, fifth and seventh days from the administration of cyclophosphamide, spleen cells of the mouse were taken and the cells (5 × 10^6 cells/ml) were cultured in a 10% FCS-RPMI 1640 medium supplemented with 2 µg/ml of concanavalin A for 24 hours, and the supernatant was assayed for IL-3. The IL-3 activity was measured by plating 1×10^4 cells/well of IL-3 dependent FDCP-2 cells on a 96 well microtiter plate, adding twofold stepwise-diluted supernatant to the wells, culturing the cells for 24 hours, and measuring a ratio of surviving FDCP-2 cells by MTT assay using 3-(4,5-dimethylthyazol-2yl)-2,5-diphenyl tetrazolium bromide. Using a culture supernatant of WEHI cells as IL-3 standard, a concentration of IL-3 which provides 50% growth per the maximum growth of the cultured FDCP-2 cells was defined as 1 unit, and I L-3 activity of a sample was obtained by calculating a sample dilution ratio which provides 50% of the maximum absorption in the standard curve.

mouse bone marrow cells = test: Colony Forming Unit in Spleen (CFU-s), transplant method, in X-ray irradiated mice; type: in vivo, C57BL/6 mouse; settings: X-ray 6 Gy, 5 x 10^4 bone marrow cells transplanted, spleen colonies after eight days; L-anserine 100 mg/kg s.c. every day to the seventh day; versus X-ray control group
Experimental: Colony Forming Unit in Spleen (CFU-s) of mouse bone marrow cells in mouse radiated with X-ray was carried out using a transplant method. The X-ray radiation was carried out using an MBR-1520 type R X-ray radiation apparatus manufactured by Hitachi Medico. The mice were irradiated with X-rays such that the radiation dose rate was 1.16 Gy/min (150 kV, 20 mA, Filter: 0.5 mm Al + 0.1 mm Cu), and the radiation dose was 6 Gy. 5 × 10^4 bone marrow cells of normal C57BL/6 mouse were injected into a tail vein of a radiated recipient female C57BL/6 mouse. Eight days later, the spleen of the mouse was removed and fixed with Bouin solution, and the number of cell colonies formed on the spleen surface were counted. To the L-anserine-administration group 100 mg/kg dose of L-anserine was subcutaneously administrated every day from the day on which X-ray was radiated to the seventh day, and to the chicken extract-administration group 0.5 ml/head dose of chicken extract containing 2mg/ml of L-anserine was orally administrated every day from the day on which X-ray was radiated to the seventh day.

leukocytes = test: Leukocyte number recovery in mice given cyclophosphamide; type: in vivo, C57BL mice; settings: for The number of leukocytes: Ans 100 mg/kg s.c. every day where given, mean ± standard error, 5 animals
Text: On the seventh, eighth and ninth days from the administration of cyclophosphamide blood samples were taken from the orbital venosus plexus of the mouse, and the number of leukocytes was counted by an automatic hemacytometer.

erythrocytes [1] = test: Prevention of anemia in mice given cyclophosphamide; type: in vivo, C57BL-mice
Experimental: 7-week old C57BL-mice were intravenously injected with cyclophosphamide (CY) in a dose of 300 mg/kg. L-anserine (Ans) was subcutaneously administered every day in a dose of 100 mg/kg from the day on which cyclophosphamide was administered. After 1, 3, 5, 7 and 9 days from the administration of cyclophosphamide (for L-anserine, after 3, 5 and 7 days), blood samples were taken from the orbital venosus plexus of the mouse, and the number of erythrocyte and the amount of hemoglobin were measured by an automatic hemacytometer. The experiment was carried out using three mice per experimental group, and the results are shown as mean ± standard error.

erythrocytes [2] = test: Treatment of anemia in mice irradiated with X-ray; type: in vivo, C57BL/mice; settings: 4.0 Gy X-ray; L-anserine 100 mg/kg s.c. for 10 days; 14th day from irradiation
Experimental: 7-week old C57BL/mice were systemically irradiated with 4.0 Gy of X-ray. L-anserine was subcutaneously injected continuously for 10 days from the day on which X-ray was irradiated in a dose of 100 mg/kg. On 14th day from the irradiation of X-ray, blood samples were taken from the orbital venosus plexus of mice, and the number of erythrocytes and amount of hemoglobin were measured by an automatic hemacytometer. The experiment used three mice for one experimental group, and the results are shown as mean ± standard error.

[3] = tested on: colony stimulating activity (CSA) in serum; test: Colony stimulating activity (CSA) in serum of cyclophosphamide-treated mice
Experimental: 300 mg/kg dose of cyclophosphamide (CY) was intravenously injected into 7-week-old ICR mice. 100 mg/kg dose of L-anserine (Ans) was subcutaneously injected every day from the day on which cyclophosphamide was administered. On the first, third, fifth, seventh and ninth days from the administration of cyclophosphamide (on the third, fifth and seventh day for the group to which Ans was administrated), the mouse serum was taken, and colony stimulating activity (CSA) was measured. For a CSA assay in serum, 50 µl of CSA assay serum was added to a medium comprising 50 µl of bone marrow cells (1.5 × 10^6 cells/ml) aseptically recovered from the femur of a normal female ICR mouse, 200 µl of FCS, 450 µl of 0.6% agar and 300 µl of × 2 DMEM, and the mixture was stirred and cultured in 5% CO2 at 37°C for 10 days, a cell mass comprising at least 30 cells was counted as one colony, and the number of the colonies was defined as the CSA of a serum.

[4] = CY 300 mg/kg i.v. + L-anserine 100 mg/kg s.c. every day, third day to seventh day
[5] = CY 300 mg/kg i.v. alone, third to seventh days

Question: For Cn1cncc1C[C@H](NC(=O)CCN)C(=O)O [L-anserine, β-alanyl-π-methyl-L-histidine], which “spontaneous proliferation ability of bone marrow cells” value (shortened to “spontaneous proliferation ability”) (bone marrow cells; CY 300 mg/kg i.v. + L-anserine 100 mg/kg s.c. every day, third and seventh days, versus CY alone control group) is on record?
Answer: at least two times higher than the control group

Question: And the “spontaneous proliferation ability” value (bone marrow cells; CY 300 mg/kg i.v. + L-anserine 100 mg/kg s.c. every day, third to seventh days, versus CY alone control group)?
Answer: significantly higher than that of the control group

Question: And the “IL-3 productivity of the spleen cells” value (IL-3; fifth and seventh days)?
Answer: 1.5 times higher than the control group

Question: And the “IL-3 productivity of the spleen cells” value (IL-3; third to seventh days, versus CY alone control group)?
Answer: higher than the control group

Question: What about the CFU-s activity (mouse bone marrow cells) of the same compound?
Answer: significantly higher

Question: What about the number of leukocytes (leukocytes; CY 300 mg/kg i.v. + L-anserine 100 mg/kg s.c. every day, eighth and ninth days) of the same compound?
Answer: ~1.5 times higher than that of the control

Question: What about the number of leukocytes (leukocytes; CY 300 mg/kg i.v. + L-anserine 100 mg/kg s.c. every day, seventh to ninth days, versus CY alone control group) of the same compound?
Answer: higher than that of the control group

Question: What about the “decrease of content of hemoglobin” value (erythrocytes [1]; [4]) of the same compound?
Answer: inhibited

Question: And the “decrease of the number of erythrocytes” value (erythrocytes [1]; [4])?
Answer: inhibited

Question: What about the “recovery of the concentration of hemoglobin” value (erythrocytes [2]) of the same compound?
Answer: promoted

Question: And the “recovery of the number of erythrocytes” value (erythrocytes [2])?
Answer: promoted

Question: And the “colony stimulating activity (CSA) in serum” value (“colony stimulating activity” for short) ([3]; CY 300 mg/kg i.v. + L-anserine 100 mg/kg s.c. every day, third day)?
Answer: 1.5 times higher than the control group

Question: And the “colony stimulating activity” value ([3]; CY 300 mg/kg i.v. + L-anserine 100 mg/kg s.c. every day, third to seventh days, versus CY alone control)?
Answer: higher than that of the control

Question: For O=P1(N(CCCl)CCCl)NCCCO1 (centres unmarked) [CY, cyclophosphamide], which “spontaneous proliferation ability” value (bone marrow cells; CY 300 mg/kg i.v. alone, fifth day) is on record?
Answer: once recovered to the normal level

Question: What about the “spontaneous proliferation ability” value (bone marrow cells; CY 300 mg/kg i.v. alone, first to third days) of the same compound?
Answer: remarkably inhibited

Question: And the “spontaneous proliferation ability” value (bone marrow cells; CY 300 mg/kg i.v. alone, seventh to ninth days)?
Answer: again decreased

Question: And the “productivity of IL-3 by spleen cells” value (IL-3; first to third days)?
Answer: inhibited

Question: What about the “productivity of IL-3 by spleen cells” value (IL-3; on and after the fifth day, versus normal conditions) of the same compound?
Answer: increase of IL-3 productivity by two times

Question: What about the “The number of leukocytes” value (leukocytes; 7 days after CY 300 mg/kg i.v.) of the same compound?
Answer: 32.8 ± 8.0 X 100/µl

Question: What about the “The number of leukocytes” value (leukocytes; 8 days after CY 300 mg/kg i.v.) of the same compound?
Answer: 67.4 ± 8.1 X 100/µl

Question: And the “The number of leukocytes” value (leukocytes; 9 days after CY 300 mg/kg i.v.)?
Answer: 66.6 ± 7.2 X 100/µl

Question: What about the number of leukocytes (leukocytes; CY 300 mg/kg i.v. alone, time course after administration) of the same compound?
Answer: decreased immediately after the administration, and gradually recovered before the seventh to ninth day

Question: And the amount of hemoglobin (erythrocytes [1]; [5])?
Answer: decrease, resulting in anemia

Question: What about the number of erythrocytes (erythrocytes [1]; [5]) of the same compound?
Answer: decrease, resulting in anemia

Question: What about the “colony stimulating activity” value ([3]; CY 300 mg/kg i.v. alone, after the third day) of the same compound?
Answer: the inhibition was compensated by stimulation of CSA

Question: What about the “colony stimulating activity” value ([3]; CY 300 mg/kg i.v. alone, first day) of the same compound?
Answer: inhibited
